Measurements from patent publication US10364256B2 (GlaxoSmithKline Intellectual Property Development Limited, priority 2015, dated 2019).
Like-named read-outs stand apart in the source and are kept apart here.

What was measured:
[1] = target: T1, full length Keap1 protein / full length NRF2 protein (Homo sapiens, UniProt Q14145); assay: NRF2-Keap1 TR-FRET Low Protein Assay; format: binding; details: 1.25 nM Keap1 FlagHis and 2.5 nM biotin-NRF2 added
T1 construct: full length NRF2 protein and full length Keap1 protein (Keap1 exists a dimer) are used; His
In short: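 Flag-tagged full-length Keap1 was preincubated with compound (3-fold series) for 2.25 h at 37 °C in Tris pH 8.0/MgCl2/NaCl/BSA/DTT/CHAPS. Biotin-Avi-NRF2 (added at 2.5 nM) was then bound for 1.25 h at 4 °C. Eu-streptavidin/anti-Flag-APC TR-FRET (665/615 nm) was read after 1 h at RT, and pIC50 came from a four-parameter fit.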

[2] = test system: NQO1 specific enzyme activity in BEAS-2B cells (marker for NRF2 activation); assay: BEAS-2B NQO1 MTT Assay; format: cell-based; details: Homo sapiens, compound incubated 48 hours, read-out: EC50 (NQO1 specific enzyme activity induction)
In short: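 BEAS-2B cells treated with compound for 48 h at 37 °C, then lysed; NQO1 activity in lysates measured kinetically by MTT reduction at A570 over 30 min. pEC50 from 3-parameter fit of ΔOD/min versus log concentration; lysate also taken for Cell Titer Glo.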

T1 sequence (Q14145 whole entry): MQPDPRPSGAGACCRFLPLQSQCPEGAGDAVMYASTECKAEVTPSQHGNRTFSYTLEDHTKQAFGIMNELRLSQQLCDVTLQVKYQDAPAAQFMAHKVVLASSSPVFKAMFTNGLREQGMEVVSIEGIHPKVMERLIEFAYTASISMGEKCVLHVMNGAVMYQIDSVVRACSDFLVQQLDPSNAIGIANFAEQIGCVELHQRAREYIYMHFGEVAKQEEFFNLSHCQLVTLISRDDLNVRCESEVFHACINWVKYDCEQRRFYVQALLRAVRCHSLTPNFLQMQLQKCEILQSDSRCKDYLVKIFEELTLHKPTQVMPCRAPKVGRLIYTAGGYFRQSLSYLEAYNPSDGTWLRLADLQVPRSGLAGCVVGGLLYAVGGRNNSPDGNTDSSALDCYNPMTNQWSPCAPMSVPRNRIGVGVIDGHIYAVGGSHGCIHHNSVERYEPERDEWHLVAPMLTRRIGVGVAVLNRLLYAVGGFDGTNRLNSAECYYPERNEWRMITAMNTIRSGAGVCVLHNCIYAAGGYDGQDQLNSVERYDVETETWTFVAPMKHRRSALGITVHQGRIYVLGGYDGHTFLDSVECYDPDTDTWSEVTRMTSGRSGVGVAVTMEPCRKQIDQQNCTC

SMILES | IC50 [1] [nM] | EC50 [2] [nM] | EC50 ([2]; BEAS-2B, 48 h) [nM]
COC(c1cccc(-c2cccc(-n3ncc(C(=O)O)c3C3CC3c3cn(C)nn3)c2)c1)C1CCCC1 (centres unmarked) [Example 183, 1-(3′-(Cyclopentyl(methoxy)methyl)-[1,1′-biphenyl]-3-yl)-5-(2-(1-methyl-1H-1,2,3-triazol-4-yl)cyclopropyl)-1H-pyrazole-4-carboxylic acid] | 10 to 100 | 100 to 1000 | 
CCC[C@@H]1CCCCN1C(=O)c1cncc(-c2cccc(-n3ncc(C(=O)O)c3C3CC3c3cn(C)nn3)c2)c1 (stereo partly drawn) [Example 197, 5-(2-(1-Methyl-1H-1,2,3-triazol-4-yl)cyclopropyl)-1-(3-(5-((R)-2-propylpiperidine-1-carbonyl)pyridin-3-yl)phenyl)-1H-pyrazole-4-carboxylic acid] | < 10 |  | 1000 to 10000
CCCC1(C)CCc2cnn(-c3cccc(-c4cccc(-n5ncc(C(=O)O)c5C5CC5)c4)c3)c21 (centres unmarked) [Example 205, 5-Cyclopropyl-1-(3′-(6-methyl-6-propyl-5,6-dihydrocyclopenta[c]pyrazol-1(4H)-yl)-[1,1′-biphenyl]-3-yl)-1H-pyrazole-4-carboxylic Acid] | 10 to 100 | 100 to 1000 | 
CCC[C@@H]1CCCCN1C(=O)c1cccc(-c2cccc(-n3ncc(C(=O)O)c3C3CC3c3cnn(C)c3)c2)c1 (stereo partly drawn) [Example 213, 5-(2-(1-Methyl-1H-pyrazol-4-yl)cyclopropyl)-1-(3′-((R)-2-propylpiperidine-1-carbonyl)-[1,1′-biphenyl]-3-yl)-1H-pyrazole-4-carboxylic Acid] | < 10 |  | 100 to 1000
CCC[C@@H]1CCCCN1C(=O)c1cccc(-c2cccc(-n3ncc(C(=O)O)c3C3CC3c3cnn(C)c3)c2)c1F (stereo partly drawn) [Example 214, 1-(2′-Fluoro-3′-((R)-2-propylpiperidine-1-carbonyl)-[1,1′-biphenyl]-3-yl)-5-(2-(1-methyl-1H-pyrazol-4-yl)cyclopropyl)-1H-pyrazole-4-carboxylic Acid] | < 10 |  | 100 to 1000
Cn1cc(C2CC2c2c(C(=O)O)cnn2-c2cccc(-c3cccc(C(=O)CC4CCCCC4)c3)c2)nn1 (centres unmarked) [Example 215, 1-(3′-(2-Cyclohexylacetyl)-[1,1′-biphenyl]-3-yl)-5-(2-(1-methyl-1H-1,2,3-triazol-4-yl)cyclopropyl)-1H-pyrazole-4-carboxylic Acid] | 10 to 100 | 100 to 1000 | 
CC(Oc1cccc(-c2cccc(-n3ncc(C(=O)O)c3C3CC3c3cn(C)nn3)c2)c1)C1CCCCC1 (centres unmarked) [Example 219, 1-(3′-(1-Cyclohexylethoxy)-[1,1′-biphenyl]-3-yl)-5-(2-(1-methyl-1H-1,2,3-triazol-4-yl)cyclopropyl)-1H-pyrazole-4-carboxylic acid] | 10 to 100 |  | 10 to 100
Cn1cc(C2CC2c2c(C(=O)O)cnn2-c2cccc(-c3cccc(OCc4ccccc4)c3)c2)nn1 (centres unmarked) [Example 221] | 100 to 1000 | 100 to 1000 | 
Cn1cc(C2CC2c2c(C(=O)O)cnn2-c2cccc(-c3cccc(OCc4ccccc4F)c3)c2)nn1 (centres unmarked) [Example 222, 1-(3′-((2-Fluorobenzyl)oxy)-[1,1′-biphenyl]-3-yl)-5-(2-(1-methyl-1H-1,2,3-triazol-4-yl)cyclopropyl)-1H-pyrazole-4-carboxylic acid] | 10 to 100 | 100 to 1000 | 
Cn1cc(C2CC2c2c(C(=O)O)cnn2-c2cccc(-c3cccc(OCCC(C)(C)C)c3)c2)nn1 (centres unmarked) [Example 225, 1-(3′-(3,3-Dimethylbutoxy)-[1,1′-biphenyl]-3-yl)-5-(2-(1-methyl-1H-1,2,3-triazol-4-yl)cyclopropyl)-1H-pyrazole-4-carboxylic acid] | 10 to 100 | 10 to 100 | 

The next lines start with results.

IC50 [1] [nM] | SMILES | EC50 [2] [nM] | EC50 ([2]; BEAS-2B, 48 h) [nM]
10 to 100 | Cn1cc(C2CC2c2c(C(=O)O)cnn2-c2cccc(-c3cccc(SCC4CCCCC4)c3)c2)nn1 (centres unmarked) [Example 179, 1-(3′-((Cyclohexylmethyl)thio)-[1,1′-biphenyl]-3-yl)-5-(2-(1-methyl-1H-1,2,3-triazol-4-yl)cyclopropyl)-1H-pyrazole-4-carboxylic acid] | 1 to 10 | 
1000 to 10000 | Cc1nn(-c2cccc(-c3cccc(OCC4CCCCC4)c3)c2)c(C2CC2c2cn(C)nn2)c1C(=O)O (centres unmarked) [Example 188, 1-(3′-(cyclohexylmethoxy)-[1,1′-biphenyl]-3-yl)-3-methyl-5-(2-(1-methyl-1H-1,2,3-triazol-4-yl)cyclopropyl)-1H-pyrazole-4-carboxylic Acid] | 100 to 1000 | 
< 10 | CCC[C@@H]1CCCCN1C(=O)c1cccc(-c2cccc(-n3ncc(C(=O)O)c3C3CC3c3cn(C)nn3)n2)c1 (stereo partly drawn) [Example 196, 5-(2-(1-Methyl-1H-1,2,3-triazol-4-yl)cyclopropyl)-1-(6-(3-((R)-2-propylpiperidine-1-carbonyl)phenyl)pyridin-2-yl)-1H-pyrazole-4-carboxylic Acid] |  | 100 to 1000
< 10 | CCC[C@@H]1CCCCN1C(=O)c1cccc(-c2cccc(-n3nc(C)c(C(=O)O)c3C3CC3c3cn(C)nn3)c2)c1 (stereo partly drawn) [Example 202, 3-Methyl-5-(2-(1-methyl-1H-1,2,3-triazol-4-yl)cyclopropyl)-1-(3′-((R)-2-propylpiperidine-1-carbonyl)-[1,1′-biphenyl]-3-yl)-1H-pyrazole-4-carboxylic acid] |  | 100 to 1000
100 to 1000 | CC1(C)CCc2cnn(-c3cccc(-c4cccc(-n5ncc(C(=O)O)c5C(F)(F)F)n4)c3)c21 [Example 204, 1-(6-(3-(6,6-Dimethyl-5,6-dihydrocyclopenta[c]pyrazol-1(4H)-yl)phenyl)pyridin-2-yl)-5-(trifluoromethyl)-1H-pyrazole-4-carboxylic Acid] | 100 to 1000 | 
100 to 1000 | CCCCC1CCc2cnn(-c3cccc(-c4cccc(-n5ncc(C(=O)O)c5C5CC5)c4)c3)c21 (centres unmarked) [Example 206, 1-(3′-(6-Butyl-5,6-dihydrocyclopenta[c]pyrazol-1(4H)-yl)-[1,1′-biphenyl]-3-yl)-5-cyclopropyl-1H-pyrazole-4-carboxylic Acid] | 100 to 1000 | 
1000 to 10000 | CCc1nc(-c2cccc(-c3cccc(-n4ncc(C(=O)O)c4C4CC4)c3)c2)no1 [Example 209, 5-Cyclopropyl-1-(3′-(5-ethyl-1,2,4-oxadiazol-3-yl)-[1,1′-biphenyl]-3-yl)-1H-pyrazole-4-carboxylic Acid] | 1000 to 10000 | 
10000 to 100000 | Cc1nnc(-c2cccc(-c3cccc(-n4ncc(C(=O)O)c4C4CC4)c3)c2)o1 [Example 210, 5S-Cyclopropyl-1-(3′-(5-methyl-1,3,4-oxadiazol-2-yl)-[1,1′-biphenyl]-3-yl)-1H-pyrazole-4-carboxylic acid] | 100 to 1000 | 
< 10 | Cn1cc(C2CC2c2c(C(=O)O)cnn2-c2cccc(-c3cccc(-n4ncc5c4C(C)(C)CC5)c3)c2)nn1 (centres unmarked) [Example 212, 1-(3′-(6,6-Dimethyl-5,6-dihydrocyclopenta[c]pyrazol-1(4H)-yl)-[1,1′-biphenyl]-3-yl)-5-(2-(1-methyl-1H-1,2,3-triazol-4-yl)cyclopropyl)-1H-pyrazole-4-carboxylic Acid] | 100 to 1000 | 
10 to 100 | COC(CC1CCCCC1)c1cccc(-c2cccc(-n3ncc(C(=O)O)c3C3CC3c3cn(C)nn3)c2)c1 (centres unmarked) [Example 216, 1-(3′-(2-Cyclohexyl-1-methoxyethyl)-[1,1′-biphenyl]-3-yl)-5-(2-(1-methyl-1H-1,2,3-triazol-4-yl)cyclopropyl)-1H-pyrazole-4-carboxylic Acid] | 10 to 100 | 
10 to 100 | Cn1cc(C2CC2c2c(C(=O)O)cnn2-c2cccc(-c3cccc(C(O)CC4CCCCC4)c3)c2)nn1 (centres unmarked) [Example 217, 1-(3′-(2-Cyclohexyl-1-hydroxyethyl)-[1,1′-biphenyl]-3-yl)-5-(2-(1-methyl-1H-1,2,3-triazol-4-yl)cyclopropyl)-1H-pyrazole-4-carboxylic acid] | 100 to 1000 | 
10 to 100 | CC(CC1CCCCC1)Oc1cccc(-c2cccc(-n3ncc(C(=O)O)c3C3CC3c3cn(C)nn3)c2)c1 (centres unmarked) [Example 218, 1-(3′-((1-Cyclohexylpropan-2-yl)oxy)-[1,1′-biphenyl]-3-yl)-5-(2-(1-methyl-1H-1,2,3-triazol-4-yl)cyclopropyl)-1H-pyrazole-4-carboxylic Acid] | 10 to 100 | 
100 to 1000 | Cn1cc(C2CC2c2c(C(=O)O)cnn2-c2cccc(-c3cccc(OCc4ccc(F)cc4)c3)c2)nn1 (centres unmarked) [Example 223, 1-(3′-((4-Fluorobenzyl)oxy)-[1,1′-biphenyl]-3-yl)-5-(2-(1-methyl-1H-1,2,3-triazol-4-yl)cyclopropyl)-1H-pyrazole-4-carboxylic acid] | 100 to 1000 | 
100 to 1000 | Cn1cc(C2CC2c2c(C(=O)O)cnn2-c2cccc(-c3cccc(OCc4cccc(F)c4)c3)c2)nn1 (centres unmarked) [Example 224, 1-(3′-((3-Fluorobenzyl)oxy)-[1,1′-biphenyl]-3-yl)-5-(2-(1-methyl-1H-1,2,3-triazol-4-yl)cyclopropyl)-1H-pyrazole-4-carboxylic acid] | 100 to 1000 | 
10 to 100 | CC(Oc1cccc(-c2cccc(-n3ncc(C(=O)O)c3C3CC3c3cn(C)nn3)c2)c1)C1CCOCC1 (centres unmarked) [Example 227, 5-(2-(1-Methyl-1H-1,2,3-triazol-4-yl)cyclopropyl)-1-(3′-(1-(tetrahydro-2H-pyran-4-yl)ethoxy)-[1,1′-biphenyl]-3-yl)-1H-pyrazole-4-carboxylic Acid] | 100 to 1000 | 
